Assay results from patent US20040224995A1 (University of North Texas Health Science Center at Fort …, priority 2003, published 2004).

Experiments:
[1] = test system: HT-22 cells; assay: HT-22 cell viability during H2O2 exposure (calcein AM assay); assay type: cell-based, mouse; settings: for pre-incubation required to achieve significant neuroprotection from H2O2 toxicity / protection against H2O2: HT-22; for concentrations toxic to HT-22 cells: HT-22, H2O2 experiments; for protection against H2O2: 24 h pretreatment, 30 μM H2O2; for protection when given after the H2O2 insult: post-treatment
Method: HT-22 cultures were incubated with different concentrations of the three compounds for 24 hours prior to the insult. […] Peak neuroprotective concentrations for 15d-PGJ2 ranged from […]. […] Additionally, we determined the effects of 15d-PGJ2 and troglitazone on HT-22 cells protection against another type of pro-oxidant insult, hydrogen peroxide H2O2. […] Higher concentrations (>10 μM and >20 μM) of 15 dPGJ2 and troglitazone, respectively, were toxic to HT-22 cells. […] HT-22 cells were pre-treated with 15d-PGJ2 for 24 hours. Thirty micromolar of H2O2 was then administered, and cell viability was determined 24 hours later. The cell viability is expressed as a % survival of the control (non-peroxide treated) cultures. DMSO received the vehicle only for 15d-PGJ2. Shown in FIG. 23 are the mean±SEM for n>6 cultures/group. The asterisk (“*”) indicates p<0.05 versus respective control.
The WY-14643, Ciglitazone, Troglitazone, 9-cis retinoic acid, and 15d-PGJ2 compounds were purchased from Biomol (Plymouth Meeting, Pa.). L-165041 and L-783483 were kindly provided by Merck Laboratories. The cell lines used were HT-22, an immortalized mouse hippocampal cell line, and SK—N—SH, a human neuroblastoma cell line. The HT-22 cells were obtained from David Schubert (Salk Institute, San Diego, Calif.). The HT-22 line was originally selected from HT-4 cells based on glutamate sensitivity. HT-4 cells were immortalized from primary hippocampal neurons using a temperature-sensitive SV-40 T antigen (Morimoto and Koshland, 1990). SK—N—SH were obtained from ATCC (Manassas, Va.). HT-22 and SK—N—SH cells were grown to confluence in DMEM and RPMI-1640 media, respectively, and supplemented with 10% charcoal/dextran-treated fetal bovine serum (FBS), and 5 mg/ml gentamycin at 37° C. under 95% air, 5% CO2. HT-22 cells were plated at a density of 50,000 cells/ml (5,000 cells/well), and SK—N—SH were plated at a density of 120,000 to 150,000 cells/ml (12,000 to 15,000 cells/well) in 96-well plates. In most studies, wells were pre-treated with PPAR ligands over a wide dose range at various times prior to being subjected to either glutamate, hydrogen peroxide (H2O2), or serum deprivation insults. In some studies, the insults were applied prior to the addition of the PPAR ligand.
The cell viability assays were conducted about 14 to 24 hours post-insult time, viability of cells was determined using 2.5 μM Calcein AM assay in phosphate-buffered saline (PBS). After 25 minutes of incubation, live cells were distinguished by the presence of intracellular esterase activity, which cleaves the calcein AM dye, producing a bright green fluorescence. Viability was measured in Relative Fluorescent Units (“RFU”), and expressed as percentage of vehicle-treated control values. The calcein assay was designed to produce results that accurately reflect viable cell numbers. At cell concentrations below 10,000 cells per well (96-well plate) a linear relationship between RFU and cell number is achieved (r^2=0.9997, data not shown).

[2] = test system: HT-22 cells; assay: HT-22 cell viability during BSO exposure; assay type: cell-based, mouse
Method: (§1) The in vitro model used for oxidative cell death was based upon glutamate, hydrogen peroxide, and buthionine sulfoximine (“BSO”) administration to HT-22 mouse hippocampal, C6 rat glioma, and RGC-5 retinal ganglion cell lines. The ease that the above cell lines are cultured is well known in the art of cell culture. Additionally, these cell lines are suitable for screening a various number of compounds described in the present invention.
(§2) Although not wanting to be bound by theory, the toxicity of glutamate in HT-22 (32) and C6 glioma (33) cell lines is mediated through oxidative stress. HT-22 cells lack ionotropic N-methyl-D-aspartate (“NMDA”) glutamate receptors, and the glutamate-induced cell death appears to occur via a slow onset oxidative stress (32,34,35). Glutamate blocks cystine uptake by inhibiting the glutamate/cystine antiporter in both HT-22 (32) and C6 glioma (33) cell lines. […] In some of the experiments, the viability of cells was determined using 2.5 μM calcein AM assay in phosphate-buffered saline (PBS 1×). After 25 minutes of incubation, live cells were distinguished by the presence of intracellular esterase activity, which cleaves the calcein AM dye, producing a bright green fluorescence, as shown in FIG. 22. Viability was measured in Relative Fluorescent Units (“RFU”), and expressed as percentage of vehicle-treated control values. […]

[3] = test system: RGC-5 cells; assay: RGC-5 cell viability during BSO exposure; assay type: cell-based
Method: as §1, §2

[4] = test system: PPARγ; settings: Kliewer et al., 1995; cited from earlier work

For `Cc1c(C)c2c(c(C)c1O)CCC(C)(COc1ccc(CC3SC(=O)NC3=O)cc1)O2` (centres unmarked) [troglitazone], the “pre-incubation required to achieve significant neuroprotection from H2O2 toxicity” value [1] was 4 h, the “concentrations toxic to HT-22 cells” value [1] was greater than 20 µM and the “protection against H2O2” value [1] was “dose-dependent protection”. For the same compound, the “protection when given after the H2O2 insult” value [1] was “Neither 15dPGJ2 nor troglitazone protected”, the “protection against BSO” value [2] was “protected” and the “protection against BSO” value [3] was “protected”.
In the case of `CCCCC/C=C/C=C1/C(=O)C=C[C@@H]1C/C=C\CCCC(=O)O` [15d-PGJ2, 15-deoxy-Δ^12,14-PGJ2], the EC50 [4] is given as 7 µM, the “pre-incubation required to achieve significant neuroprotection from H2O2 toxicity” value [1] is given as 4 h and the “concentrations toxic to HT-22 cells” value [1] is given as “above 10 μM”. For the same compound, the “protection against H2O2” value [1] was “dose-dependent protection” and the “protection when given after the H2O2 insult” value [1] was “Neither 15dPGJ2 nor troglitazone protected”.
